Source: patent US10214741B2, “Methods and compositions for inhibiting retinopathy of prematurity” (University of Utah Research Foundation, priority 2014, dated 2019)
Entries after “also recorded” stand apart in the source; their conditions may differ.

Legend:
severe ROP = details: weekly subcutaneous injections; preterm infants (n=102); cited from earlier work
NOX4 = experiment: ROS generation mediated by NOX4 in hRMVECs; format: cell-based, human
p-STAT3 = experiment: Western blot of p-STAT3 in hRMVECs; format: cell-based, human; details: VEGFA stimulation
Experimental: hRMVECs (Cell Systems, Kirkland, Wash.) were maintained in EGM-2 endothelial growth medium (Lonza, Walkers-ville, MD) supplemented with 5% fetal bovine serum. Cells of passage 3 to 5 were used for experiments. Confluent cells in six-well plates were starved for 16 hours and then treated with 20 ng/mL VEGFA or PBS for 24 hours for qPCR or 30 minutes for p-VEGFR2, p-EPOR, and p-STAT3.
(§1) For siRNA transfection, hRMVECs at 70% confluency were transfected in six-well plates with siRNAs targeting human EPOR, VEGFR2, or STAT3 (Life Technologies, Carlsbad, Calif.) using Lipofectamine 2000 reagent (Invitrogen by Life Technologies, Carlsbad, Calif.). A silencer selective negative control siRNA was used as control.
(§2) For cell proliferation assays, hRMVECs were plated into 96-well plates at a density of 5000 cells per well. […] Cell number was measured with a Vybrant MTT cell proliferation assay kit (Life Technologies, Carlsbad, Calif.).
(§3) Dissected retinas and hRMVECs were lysed in radioimmunoprecipitation assay buffer with 1:100 protease inhibitors (Roche Diagnostics, Indianapolis, Ind.) and 2 mmol/L sodium orthovanadate and were homogenized and centrifuged at 13,000 rpm (15,700 g) for 10 minutes at 4° C. Total protein in the supernatant fluid was quantified by a bicinchoninic acid assay (Pierce BCA; Thermo Fisher Scientific, Waltham, Mass.). […] At least six samples from each group were measured and analyzed.

hRMVECs [1] = experiment: TUNEL+ cells in hRMVECs; format: cell-based, human; details: vs. DMSO
hRMVECs [2] = experiment: VEGFA-induced hRMVEC proliferation assay (MTT); format: cell-based, human; details: 20 ng/mL VEGFA 24 hours; SU5416 5 μmol/L, AG490 10 μmol/L, siRNA transfection
Experimental: as §1
For cell proliferation assays, hRMVECs were plated into 96-well plates at a density of 5000 cells per well. At 24 hours after transfection with siRNA, cells were starved in serum-free medium for 24 hours and then were incubated with 20 ng/mL VEGFA or control PBS for another 24 hours. To inhibit VEGFR2 or STAT3 activation, cells were pretreated with 5 μmol/L of the VEGFR2 tryosine-kinase inhibitor semaxanib (SU5416), 10 μmol/L of the JAK2/STAT3 inhibitor AG490 (both from Sigma-Aldrich, St. Louis, Mo.), or dimethyl sulfoxide (DMSO) vehicle control for 1 hour before addition of VEGFA. Cell number was measured with a Vybrant MTT cell proliferation assay kit (Life Technologies, Carlsbad, Calif.).

ROP+SO model = experiment: IVNV in rat ROP model rescued in 28% oxygen (ROP+SO model); format: in vivo; details: intraperitoneal, p18, vs. PBS
Source text: Activation of NADPH oxidase generally requires aggregation of a NOX isoform (NOX1-5, Duox1 or 2) with membrane bound p22phox; for NOX1-3 activation, aggregation with Rac1 and cytoplasmic subunits p47phox, p67phox or homologs is also required. Few studies address oxygen effects on NADPH oxidase regulated signaling in ROP or development. Studying NADPH oxidase in vivo is also complicated, because 1) of compensation from NOX isoforms or homologs, which differ in different tissues, and 2) most inhibitors are not specific. In this example, oxygen stresses were varied by using 3 different OIR models: ROP and ROP+SO models in rat and OIR model in mouse. NADPH oxidase-induced signaling in ECs was targeted by reducing leukocyte/macrophages, which generate ROS through NADPH oxidase, or with a transgenic mouse. In rat ROP and ROP+SO models, macrophages ˜75% (FIG. 7A) were reduced with 1 uL intravitreal clodronate). […] Macrophages have multiple effects on angiogenesis including through non-NADPH oxidase mechanisms, so a more specific method was used to study NADPH oxidase-related signaling. NOX 1, 2, 4 are known to be involved in pathologic retinal angiogenesis; NOX2 is in macrophages and ECs. Therefore p47phox−/− mice were used to reduce NADPH oxidase activation from NOX 1-3. […]
7 experiments were conducted to accomplish three specific objectives. […] Pup weights were monitored. […]

p-EPOR = experiment: Western blot of p-EPOR in hRMVECs; format: cell-based, human; details: 30 minutes of EPO treatment
Source text: (§4) hRMVECs (Cell Systems, Kirkland, Wash.) were maintained in EGM-2 endothelial growth medium (Lonza, Walkers-ville, MD) supplemented with 5% fetal bovine serum. Cells of passage 3 to 5 were used for experiments. […]
as §1, §2
as §3, with “Blots” for “At least six samples from each group”, “visualized,” for “measured”, “the relative densities of bands were calculated as described herein, using gel analysis software (UN-SCAN-IT gel, version 6.1; Silk Scientific, Orem, Utah). […]” for “analyzed.”

EPOR = EPOR expression in hRMVECs (qPCR, Western blot); format: cell-based, human; details: overnight treatment; 20 ng/mL VEGFA or 10 IU/mL EPO; vs PBS
Source text: as §4, §1
Total RNA of cells was extracted by TRI Reagent (Sigma-Aldrich, St. Louis, Mo.). For dissected retinas, total RNA was extracted using an RNeasy mini kit (Qiagen, Valencia, Calif.). RNA was quantified using a NanoDrop spectrophotometer (Thermo Fisher Scientific, Waltham, Mass.). cDNA was generated with the use of a high-capacity cDNA archive kit (Life Technologies, Carlsbad, Calif.). qPCR was performed on a Mastercycler ep realplex system (Eppendorf, Hauppauge, N.Y.) with the use of SYBR Green master mix (Roche Diagnostics, Indianapolis, Ind.) and primers synthesized by the core research facility of the University of Utah. Expression levels for VEGFA were normalized to the mean value of internal control β-actin. […]
Dissected retinas and hRMVECs were lysed in radioimmunoprecipitation assay buffer with 1:100 protease inhibitors (Roche Diagnostics, Indianapolis, Ind.) and 2 mmol/L sodium orthovanadate and were homogenized and centrifuged at 13,000 rpm (15,700 g) for 10 minutes at 4° C. Total protein in the supernatant fluid was quantified by a bicinchoninic acid assay (Pierce BCA; Thermo Fisher Scientific, Waltham, Mass.). […] Blots were visualized, and the relative densities of bands were calculated as described herein, using gel analysis software (UN-SCAN-IT gel, version 6.1; Silk Scientific, Orem, Utah). Relative activities were calculated as the ratio of phosphorylated to total protein or to β-actin and are expressed as fold difference compared with control. At least six samples from each group were measured and analyzed.

p-VEGFR2 = molecular target: T1, p-VEGFR2 (Homo sapiens, UniProt P35968); experiment: Western blot of p-VEGFR2 in hRMVECs; format: cell-based; details: 30 minutes of EPO treatment
T1 construct: Dissected retinas and hRMVECs were lysed in radioimmunoprecipitation assay buffer; host or cells: hRMVECs
Source text: For siRNA transfection, hRMVECs at 70% confluency were transfected in six-well plates with siRNAs targeting human EPOR, VEGFR2, or STAT3 (Life Technologies, Carlsbad, Calif.) using Lipofectamine 2000 reagent (Invitrogen by Life Technologies, Carlsbad, Calif.). […]
Dissected retinas and hRMVECs were lysed in radioimmunoprecipitation assay buffer with 1:100 protease inhibitors (Roche Diagnostics, Indianapolis, Ind.) and 2 mmol/L sodium orthovanadate and were homogenized and centrifuged at 13,000 rpm (15,700 g) for 10 minutes at 4° C. Total protein in the supernatant fluid was quantified by a bicinchoninic acid assay (Pierce BCA; Thermo Fisher Scientific, Waltham, Mass.). […] Blots were visualized, and the relative densities of bands were calculated as described herein, using gel analysis software (UN-SCAN-IT gel, version 6.1; Silk Scientific, Orem, Utah). Relative activities were calculated as the ratio of phosphorylated to total protein or to β-actin and are expressed as fold difference compared with control. […]

rat ROP model = experiment: Lectin-stained retinal flat mounts, IVNV and AVA, rat ROP model (rat 50/10 OIR model); format: in vivo

T1 sequence (P35968 20-1356): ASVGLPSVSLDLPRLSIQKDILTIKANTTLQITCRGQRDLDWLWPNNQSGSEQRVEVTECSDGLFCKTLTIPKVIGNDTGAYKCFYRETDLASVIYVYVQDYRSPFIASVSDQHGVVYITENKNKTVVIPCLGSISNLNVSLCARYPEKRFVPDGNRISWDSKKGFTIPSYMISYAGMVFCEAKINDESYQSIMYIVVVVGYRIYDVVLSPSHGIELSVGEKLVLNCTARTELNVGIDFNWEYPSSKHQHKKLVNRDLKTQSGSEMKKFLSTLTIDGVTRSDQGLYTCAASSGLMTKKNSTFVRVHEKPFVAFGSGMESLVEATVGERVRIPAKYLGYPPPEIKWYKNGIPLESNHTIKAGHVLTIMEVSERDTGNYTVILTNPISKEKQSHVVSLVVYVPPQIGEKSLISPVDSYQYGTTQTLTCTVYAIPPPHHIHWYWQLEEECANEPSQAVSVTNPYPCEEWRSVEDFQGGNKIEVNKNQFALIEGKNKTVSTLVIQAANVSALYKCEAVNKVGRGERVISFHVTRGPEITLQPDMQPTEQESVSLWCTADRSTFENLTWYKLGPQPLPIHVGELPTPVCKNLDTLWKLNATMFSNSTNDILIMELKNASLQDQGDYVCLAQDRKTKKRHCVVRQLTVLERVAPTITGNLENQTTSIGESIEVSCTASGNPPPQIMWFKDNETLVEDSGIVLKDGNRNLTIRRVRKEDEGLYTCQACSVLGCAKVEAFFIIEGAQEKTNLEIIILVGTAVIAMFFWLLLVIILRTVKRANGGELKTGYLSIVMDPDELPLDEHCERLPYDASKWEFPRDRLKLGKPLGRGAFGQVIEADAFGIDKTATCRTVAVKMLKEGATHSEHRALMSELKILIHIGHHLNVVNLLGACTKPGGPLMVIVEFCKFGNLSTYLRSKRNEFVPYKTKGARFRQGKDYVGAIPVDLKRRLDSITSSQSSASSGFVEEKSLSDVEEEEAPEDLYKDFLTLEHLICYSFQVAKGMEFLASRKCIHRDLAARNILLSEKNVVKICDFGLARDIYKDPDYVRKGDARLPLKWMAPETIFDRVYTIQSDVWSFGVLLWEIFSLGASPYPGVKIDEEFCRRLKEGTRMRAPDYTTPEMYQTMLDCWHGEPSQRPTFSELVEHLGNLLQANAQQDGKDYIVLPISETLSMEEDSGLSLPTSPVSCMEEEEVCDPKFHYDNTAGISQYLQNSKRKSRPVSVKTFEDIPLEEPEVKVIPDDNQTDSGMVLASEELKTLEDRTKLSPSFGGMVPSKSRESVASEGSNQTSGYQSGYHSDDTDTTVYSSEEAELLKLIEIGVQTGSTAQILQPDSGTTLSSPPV

In the case of darbepoietin, the “occurrence of severe ROP” value (severe ROP) is listed as “neither increased nor reduced the occurrence of severe ROP”.

For `CO[C@@H]1[C@@H]2OP(=O)(O)OC[C@H]2O[C@H]1n1c(Sc2ccc(Cl)cc2)nc2c(N)ncnc21` [8CPT, 8CPT 2′OMe-cAMP], the “basal and VEGF-induced ROS generation” value (NOX4) was “inhibits VEGF (V)-induced STAT3 activation, B) basal and VEGF-induced ROS generation” and the “VEGFA-induced p-STAT3” value (p-STAT3) was “inhibits VEGF (V)-induced STAT3 activation”.

For `N#C/C(=C/c1ccc(O)c(O)c1)C(=O)NCc1ccccc1` [AG490], the “TUNEL+ cells” value (hRMVECs [1]) was “increases TUNEL+ cells”, the “VEGFA-induced hRMVEC proliferation” value (hRMVECs [2]) was “reduced VEGFA-induced hRMVEC proliferation to baseline” and the IVNV (ROP+SO model) was “inhibited Phase II IVNV in the ROP+SO; also recorded: reduced IVNV”.

With erythropoietin [EPO] the p-EPOR level (p-EPOR) was “did not increase p-EPOR and p-VEGFR2 levels”, the EPOR protein (EPOR) was “led to an increase in EPOR protein” and the p-VEGFR2 level (p-VEGFR2) was “did not increase p-EPOR and p-VEGFR2 levels”. The “Phase II IVNV” value (rat ROP model; ROP model) was “did not reduce Phase II IVNV”, the “PRVD in Phase I” value (rat ROP model; delivered at early ages) was “restored PRVD in Phase I” and the “restoration of developmental retinal vascularization” value (rat ROP model; exogenous) was 40%.
